Laboratory results: patent US10905761B2, “Use of a lipopeptide or lipoprotein as an adjuvant in therapeutic or prophylactic vaccinations” (HELMHOLTZ-ZENTRUM FUER INFEKTIONSFORSCHUNG GMBH, priority 2002, dated 2021)
“Also recorded” adds a separate entry of the source. No end group written: not given here.

Experiments:
BALB/c (H-2d) mice [1] = assay: Humoral responses after immunization by various routes with MALP-2 as adjuvant (serum β-galactosidase-specific antibody ELISA, Example 2); assay type: in vivo; conditions: day 28
Protocol: Mice were immunized by subcutaneous (s.c.), intraperitoneal (i.p.), intradermal (i.d.) and intranasal (i.n.) routes with either pure β-galactosidase (40 μg) or β-galactosidase mixed with MALP-2 (0.5 μg) on days 0, 7 and 14. On day 28 after the primary immunization, serum samples were removed and the titer of β-galactosidase-specific antibodies was determined by means of an ELISA. The results are shown as reciprocal log2 of the geometric mean of the endpoint titer. As a control, we included a group in which the animals were immunized by the route with β-galactosidase using aluminum hydroxide as adjuvant.
Mice were immunized by the intraperitoneal (i.p.) and intranasal (i.n.) route with either pure β-galactosidase (40 μg/dose) or β-galactosidase mixed with MALP-2 (1 μg/dose) on days 0, 7 and 14. On day 28 after the primary immunization, serum samples were taken and the titer of β-galactosidase-specific antibodies was determined by means of an ELISA. The results are shown as absorbances (OD […]).
Six- to eight-week old female BALB/c (H-2d) mice were purchased from Harlan Winkelmann GmbH (Borchen, Germany) and treated in accordance with local and EU directives. Groups each of 5 mice were immunized on day 1, 7 and 14 either with 40 μg of pure β-galactosidase (Boehringer, Mannheim, Germany), or with admixture of 1 or 0.5 μg of synthetic MALP-2. For the intranasal administration (i.n.), 10 μl was administered into each nostril, whereas for i.p., s.c. and i.d. injection β-galactosidase was resuspended with or without MALP-2 in respectively 400, 100 and 100 μl of PBS. 28 days after the first immunization, serum samples were taken and stored at −20° C. until the β-gal-specific antibodies were determined. Nunc-Immuno MaxiSorp assay plates with 96 wells (Nunc, Roskilde, Denmark) were coated with 100 μl of β-galactosidase (Boehringer, Mannheim, Germany) with 5 μg/ml in 0.05 M carbonate buffer (pH 8.2) per well. Serum dilutions with 1% BSA and 0.05% Tween-20 in PBS were added ([…]), and the plates were incubated at 37° C. for 24 hours. […]

immunized animals = assay: Tolerability and anti-adjuvant antibodies in immunized animals; conditions: after intranasal administration of MALP-2 as adjuvant
BALB/c (H-2d) mice [2] = assay: β-Galactosidase-specific T-cell proliferation of spleen and regional lymph node cells of immunized mice (Example 7); assay type: in vivo
Protocol: The cells were restimulated in vitro with various concentrations of soluble β-galactosidase for four days. The results are shown as average cpm subtracted from the background values for unstimulated cells from groups of three. The SEM is depicted by vertical lines.
Lymph nodes located below the lower jaw and the spleens were removed and put together for the analysis of the cellular immune responses. The cells were grown in RPMI 1640 supplemented by 10% fetal calf serum, 10 U/ml penicillin, 50 μg/ml streptomycin, 5×10^−5 M 2-mercaptoethanol and 1 mM L-glutamine (GIBCO BRL, Karlsruhe, Germany) and stored at 37° C. in a moist atmosphere with 5% CO2. The suspensions of lymph node and spleen cells were adjusted to 5×10^6 cells/ml in complete medium and put in a flat-bottomed 96-well microtiter plate (Nunc) with 100 μl/well, and the plates were incubated in the presence of various concentrations of soluble β-galactosidase for 4 days. Each concentration was tested in groups of three. During the last 18 hours of the incubation, 1 ρCi of [^3H]thymidine (Amersham International, Freiburg, Germany) was added to each well. The cells were then harvested on filter paper (Filtermat A; Wallac, Freiburg, Germany) using a cell harvester (Inotech, Wohlen, Switzerland), and the amount of incorporated [^3H]thymidine in the DNA of the proliferated cells was determined with the aid of a […] (Wallac 1450, Micro-Trilux). The results have been shown as the arithmetic mean of the uptake of [^3H]thymidine in cpm.

BALB/c (H-2d) mice [3] = assay: β-Galactosidase-specific IgA in lung and vaginal lavages of mice immunized i.n. (Example 5); assay type: in vivo
Protocol: The results are shown as percentage of β-galactosidase-specific IgA in relation to the total IgA present. The SEM is indicated by vertical lines.
The mice were sacrificed on day 31, and the final samples were taken. Vaginal and lung lavages were obtained by rinsing the organs with 1 ml of PBS supplemented by 50 mM EDTA, 0.1% BSA and 10 mM PMSF. The lavages were then centrifuged in order to remove tissue detritus (10 min at 3000×g) and the remaining liquid was stored at −20° C. In order to determine the total IgA concentration in the rinsings from lung and vagina, serial dilutions of the corresponding samples were incubated in microtiter plates, these plates having previously been coated with goat anti-mouse IgA (Sigma Chemie) as capture antibody (100 μl/well). Serial dilutions of purified mouse IgA (Sigma Chemie) were used to produce a standard plot.

## S-[2,3-bispalmitoyloxypropyl]cysteinyl-GNNDESNISFKEK ({S‑(2,3-bispalmitoyloxypropyl)Cys}-GNNDESNISFKEK) [MALP-2]
BALB/c (H-2d) mice [1]; 0.5 μg MALP-2, s.c., i.p., i.d., i.n.
  antibody responses compared with aluminum hydroxide as standard adjuvant for s.c. injection: at least as strong as (i.d.) or stronger
BALB/c (H-2d) mice [1]; 0.5 μg MALP-2 mixed with 40 μg β-galactosidase, s.c., i.p., i.d., i.n.
  adjuvant effect on β-galactosidase-specific serum antibodies: significant increase; also recorded: strong adjuvant effect
BALB/c (H-2d) mice [1]; 1 μg MALP-2, i.p. and i.n.
  adjuvant effect on β-galactosidase-specific serum antibodies at higher dose: abolition of the adjuvant effect
Immunized animals
  anti-MALP-2 antibodies: No anti-MALP-2 antibodies were detectable
BALB/c (H-2d) mice [2]; 0.5 μg MALP-2 versus 10 μg CTB, i.n., p<0.05
  T-cell proliferation / cellular response compared with CTB as adjuvant: statistically significant (p<0.05) increase in T-cell proliferation; also recorded: distinctly higher proliferation
BALB/c (H-2d) mice [2]; i.n. immunization, day 31
  proliferation of lymph node and spleen cells after in vitro restimulation with β-galactosidase: efficient proliferation response
BALB/c (H-2d) mice [2]; i.p. immunization, day 31
  proliferation of spleen cells after in vitro restimulation with β-galactosidase: further increase in proliferation
BALB/c (H-2d) mice [3]; 0.5 μg MALP-2 versus 10 μg CTB, i.n.
  levels of β-galactosidase-specific antibodies in the mucous membranes, MALP-2 versus CTB: No statistically significant differences
BALB/c (H-2d) mice [3]; MALP-2 as adjuvant, i.n.
  antigen-specific IgA, based on the total IgA, in lung lavages: 36%
  antigen-specific IgA, based on the total IgA, in vaginal lavages: 23%
BALB/c (H-2d) mice [3]; i.n. immunization, day 31
  β-galactosidase-specific IgA in lung rinsings: significant increase
  β-galactosidase-specific IgA in vaginal rinsings: significant concentrations
